# According to patent publication US20220323468A1, “REDUCED NICOTINAMIDERIBOSIDES FOR THE TREATMENT/PREVENTION OF LIVER DISEASE” (SOCIETE DES PRODUITS NESTLE S.A., priority 2019, published 2022):
# Entries after “also recorded” stand apart in the source; their conditions may differ.
# What was measured:
# [1] = Stability in FBS supplemented media
# Description: (§1) NR degradation to NAM has been proposed as a limitation for its pharmacological efficacy. To evaluate whether NRH was also susceptible to degradation to NAM, we spiked NRH or NR in isolated mouse plasma. […] We also tested the stability of NRH in other matrixes.
# [2] = Hepatic NAD+ levels after oral administration in mice; type: in vivo; details: compared with NR
# Description: (§2) 8 week-old C57BI/6NTac mice were orally gavaged with either saline (as vehicle), NR (500 mg/kg) or NRH (500 mg/kg). After 1 hour, liver, skeletal muscle and kidney NAD^+ levels were evaluated. All results are expressed as mean+/− SEM of n=5 mice per group. * indicates statistical difference at p<0.05 vs. vs. saline-treated mice. # indicates statistical difference at p<0.05 vs. NR treated mice.
# (§3) Oral administration of NRH led to very similar results to those observed after IP administration. […] NRH was detectable in plasma 1 h after oral administration. In contrast, NR levels were undetectable at 1 h after NR administration.
# [3] = test system: primary hepatocytes from NRK1 knockout (NRK1KO) mice; assay: NAD+ levels in primary hepatocytes from control or NRK1 knockout mice; type: cell-based; details: after 1 hour of treatment
# Description: (§4) The action of NRH was also NAMPT-independent, based on experiments using FK866, a NAMPT inhibitor. If NRH led to NAD+ synthesis via the formation of NMNH, this hypothetical path would require the phosphorylation of NRH into NMNH. Given the essential and rate-limiting role of NRK1 in NR phosphorylation, we wondered whether the ability of NRH to boost NAD+ levels was NRK1 dependent. To answer this question, we evaluated NRH action in primary hepatocytes from either control or NRK1 knockout (NRK1KO) mice. […] Further, they rule out the possibility that NRH-induced NAD+ […] is driven by NRH oxidation into NR.
# [4] = Plasma NRH, NR and NAM after oral administration in mice; type: in vivo
# Description: as §2
# (§5) Levels of NRH and other NAD-related metabolites in biological samples were obtained by using a cold liquid-liquid extraction using a mixture of methanol:water:chloroform in 5:3:5 (v/v), from which the polar phase was recovered for hydrophilic interaction ultra-high performance liquid chromatography mass spectrometry (UHPLC-MS) analysis. The UHPLC consisted of a binary pump, a cooled autosampler, and a column oven (DIONEX Ultimate 3000 UHPLC+ Focused, Thermo Scientific), connected to a triple quadrupole spectrometer (TSQ Vantage, Thermo Scientific) equipped with a heated electrospray ionisation (H-ESI) source. Of each sample, 2 μL were injected into the analytical column (2.1 mm×150 mm, 5 μm pore size, 200 Å HILICON iHILIC®-Fusion(P)), guarded by a pre-column (2.1 mm×20 mm, 200 Å HILICON iHILIC®-Fusion(P) Guard Kit) operating at 35° C. The mobile phase (10 mM ammonium acetate at pH 9, A, and acetonitrile, B) was pumped at 0.25 mL/min flow rate over a linear gradient of decreasing organic solvent (0.5-16 min, 90-25% B), followed by re-equilibration for a total run time of 30 min. The MS operated in positive mode at 3500 V with multiple reaction monitoring (MRM). The software Xcalibur v4.1.31.9 (Thermo Scientific) was used for instrument control, data acquisition and processing. Retention time and mass detection was confirmed by authentic standards.
# as §3
# NAMPT = target: T1, NAMPT (Mus musculus, UniProt Q99KQ4); assay: NRH-induced NAD+ synthesis with NAMPT inhibitor FK866; type: cell-based; details: experiments using FK866, a NAMPT inhibitor
# T1 construct: endogenous in cells
# T1 sequence (Q99KQ4 whole entry): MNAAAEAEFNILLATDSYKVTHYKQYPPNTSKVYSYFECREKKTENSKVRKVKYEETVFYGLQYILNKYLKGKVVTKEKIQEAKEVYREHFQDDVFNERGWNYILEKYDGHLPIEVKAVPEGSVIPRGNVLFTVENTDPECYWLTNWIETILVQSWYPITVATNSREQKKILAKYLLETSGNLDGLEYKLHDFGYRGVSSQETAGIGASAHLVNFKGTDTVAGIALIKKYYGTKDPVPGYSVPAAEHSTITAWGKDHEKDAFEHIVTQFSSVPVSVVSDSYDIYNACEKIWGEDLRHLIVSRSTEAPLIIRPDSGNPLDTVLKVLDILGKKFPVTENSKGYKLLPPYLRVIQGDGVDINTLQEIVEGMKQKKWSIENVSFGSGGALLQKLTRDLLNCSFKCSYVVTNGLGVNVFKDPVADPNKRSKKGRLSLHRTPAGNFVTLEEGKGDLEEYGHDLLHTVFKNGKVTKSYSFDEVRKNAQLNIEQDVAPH
# Description: as §4
# [5] = Circulating NAM, NRH and NR after IP injection in mice; type: in vivo
# Description: as §5
# (§6) The above results prompted us to test whether NRH could act as an effective NAD+ precursor in vivo. For this, we first intraperitoneally (IP) injected mice with either NR or NRH (500 mg/kg).
# C2C12 myotubes = assay: NAD+ levels in C2C12 myotubes after NRH treatment; type: cell-based
# [6] = Tissue NAD+ levels after IP injection in mice; type: in vivo; details: IP 500 mg/kg, after 1 h
# Description: as §6
# [7] = Stability in isolated mouse plasma; type: in vitro ADME
# Description: as §1
# adenosine kinase (AK) = target: T2, adenosine kinase (AK) (Mus musculus, UniProt P55264); assay: NRH-induced NAD+ synthesis with adenosine kinase inhibitors; type: cell-based; details: metabolomic analyses, upon inhibition of AK
# T2 construct: endogenous in cells; host or cells: AML12 cells
# T2 sequence (P55264 whole entry): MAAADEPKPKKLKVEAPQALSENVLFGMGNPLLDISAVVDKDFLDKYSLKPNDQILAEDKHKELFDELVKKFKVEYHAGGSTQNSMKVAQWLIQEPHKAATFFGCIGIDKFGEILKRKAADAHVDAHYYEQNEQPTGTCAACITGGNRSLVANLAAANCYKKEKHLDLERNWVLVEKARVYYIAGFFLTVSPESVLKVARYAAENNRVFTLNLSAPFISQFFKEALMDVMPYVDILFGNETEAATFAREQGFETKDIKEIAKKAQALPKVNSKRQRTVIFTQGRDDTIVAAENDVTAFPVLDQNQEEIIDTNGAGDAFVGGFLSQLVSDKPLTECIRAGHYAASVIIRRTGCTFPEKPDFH
# Description: AML12 cells were treated with an adenosine kinase inhibitor (5-IT; […]) for 1 hour prior to NRH treatment at the doses indicated. Then, 1 hour later, acidic extracts were obtained to measure NAD^+ levels.
# INS1-cells = assay: NAD+ levels in INS1-cells after NRH treatment; type: cell-based
# [8] = Intrahepatic and hepatic mitochondrial NAD+ after IP injection in mice; type: in vivo; details: NR 500 mg/kg or equimolar amounts, 1 hour later
# Description: 10 week old male mice were fasted for 2 hours prior to intraperitoneal injection (IP) with saline as control/vehicle, nicotinamide riboside (NR; 500 mg/kg) or equimolar amounts of dihydronicotinamide riboside (NRH) or nicotinamide (NAM). Then, 1 hour later, mice were euthanized and a piece of liver was snap frozen while another piece was used for mitochondrial isolation following a published procedure (Frezza et al., 2007; Nature Protocols). The piece of snap frozen liver was weighted and submitted to acidic extraction to evaluate NAD+ levels through enzymatic methods. For isolated mitochondria, protein was quantified and 200 micrograms of protein were used for acidic extraction and NAD+ measurement through enzymatic methods. […] All results are mean+/− SEM of n=4 animals per group. * indicates statistical difference at p<0.05 vs. control/vehicle group.
# [9] = set-up: species or system mice; details: mouse, in vivo, 250 mg/kg
# Description: 8 week-old C57Bl/6NTac mice were orally gavaged with either saline (as vehicle), and NRH (250 mg/kg). After 2 hours, liver, skeletal muscle and kidney NRH levels were evaluated. All results are expressed as mean+/− SEM of n=4 mice per group, as areas under the signal by LC-MS analysis, corrected by total protein amount of tissue.
# as §5
# [10] = test system: intracellular NRH, NMNH, NR and NMN; assay: Intracellular NAD+ related metabolites after treatment (UHPLC-MS); type: cell-based
# Description: as §5, with “standards. […]” for “standards.”
# Stability in water = type: physicochemical; details: pH=7, at room temperature, 48 h
# Description: as §1
# AML12 hepatocytes = assay: Intracellular NAD+ levels in AML12 hepatocytes (dose-response and time course); type: cell-based
# Description: Even at such relatively low dose, NRH achieved similar increases in intracellular NAD+ levels to those reached with NR at 50-fold higher concentrations. NRH achieved maximal effects on NAD+ synthesis around the millimolar range, managing to increase intracellular NAD+ levels by more than 10-fold.
# NRH actions were also extremely fast (FIG. 3), as significant increases in NAD+ levels were observed within 5 minutes after NRH treatment.
# 3T3 fibroblasts = assay: NAD+ levels in 3T3 fibroblasts after NRH treatment; type: cell-based
# [11] = test system: equilibrative nucleoside transporters (ENTs); assay: NRH-induced NAD+ synthesis under ENT blockage; type: cell-based; details: in the presence of S-(4-nitrobenzyl)-6-thioinosine (NBTI)
# Description: In order to understand the exact path by which NRH synthesizes NAD+, we initially evaluated whether NRH, could be transported into the cell by equilibrative nucleoside transporters (ENTs).
# [12] = spiked in isolated mouse plasma, 2 h of incubation
smiles,measurement,setting,value
NC(=O)C1=CN([C@@H]2O[C@H](CO)[C@@H](O)[C@H]2O)C=CC1 [NRH],degradation to NAM,[1],did not degrade to NAM
same,effect on hepatic NAD+ levels,[2],more potent effect on hepatic NAD+ levels than NR
same,NAD+ levels in NRK1KO derived primary hepatocytes,[3],not affected by NRK1 deficiency
same,NRH concentration in plasma,"[4]; mice, after oral gavage",11.16 ± 1.74 µM
same,administered compound in plasma,"[4]; mouse, in vivo, po",detectable
same,dependence of NAD+ increasing action on NAMPT,NAMPT,NAMPT-independent
same,NAM levels in circulation,"[5]; mice, IP 500 mg/kg",only a very mild increase
same,NR in circulation,"[5]; mouse, in vivo, ip",much higher levels than those detected after NR injection itself
same,NRH in circulation,"[5]; mouse, in vivo, ip",detectable in circulation
same,NAD+ levels,C2C12 myotubes,highly elevated
same,NAD+ levels in kidney,[6],increased NAD+ levels
same,NAD+ levels in liver,[6],increased NAD+ levels
same,NAD+ levels in muscle,[6],increased NAD+ levels
same,NR production in plasma,[7]; incubation in isolated plasma,did not lead to NR production
same,compound levels in plasma,[7]; [12],remained stable
same,generation of NAM in plasma,[7]; [12],NAM was not generated; also recorded: did not significantly alter NAM levels
same,"generation of NMNH, NADH and NAD+ from NRH",adenosine kinase (AK),fully blunted
same,NAD+ levels,INS1-cells,highly elevated
same,intrahepatic NAD+,[8],increase intrahepatic NAD+
same,hepatic mitochondrial NAD+ levels,[8]; isolated liver mitochondria,only NRH increases mitochondrial NAD+ levels
same,NRH in kidney,[9],"found intact, in high levels"
same,NRH in liver,[9],"found intact, in high levels"
same,NRH in muscle,[9],"found intact, in high levels"
same,intracellular detection of NRH and NMNH,[10]; 5 minutes after treatment,could be detected intracellularly
same,intracellular NR and NMN,"[10]; after treatment, compared with NR","increase in intracellular NR and NMN, greater than that triggered by NR itself"
same,stability in water,Stability in water,certified NRH stability
same,time to significant increase in NAD+ levels after treatment,"AML12 hepatocytes; AML12 hepatocytes, FIG. 3",≤ 5 min
same,ability to increase intracellular NAD+,"AML12 hepatocytes; AML12 hepatocytes, compared with NR",superior to that of NR
same,concentration at which NAD+ levels are significantly increased,"AML12 hepatocytes; AML12 hepatocytes, dose-response, FIG. 2",10 µM
same,fold higher NR concentration needed to reach similar increases in intracellular NAD+,AML12 hepatocytes; NRH at 10 μM versus NR,50 fold
same,maximal increase of intracellular NAD+ levels,AML12 hepatocytes; around the millimolar range,more than 10 fold
same,NAD+ levels,3T3 fibroblasts,highly elevated
same,capacity as extracellular NAD+ precursor under ENT blockage,[11],largely lost its capacity as an extracellular NAD+ precursor
